Assay results reported in ChEMBL document CHEMBL3352541, “1-Phenylsulfinyl-3-(pyridin-3-yl)naphthalen-2-ols: a new class of potent and selective aldosterone synthase inhibitors” (Eur J Med Chem, 2015).

Key:
[1] = target: T1, Cytochrome P450 11B2, mitochondrial (Homo sapiens, UniProt P19099); format: cell-based; settings: V79MZ, 1 h
T1 sequence (P19099 whole entry): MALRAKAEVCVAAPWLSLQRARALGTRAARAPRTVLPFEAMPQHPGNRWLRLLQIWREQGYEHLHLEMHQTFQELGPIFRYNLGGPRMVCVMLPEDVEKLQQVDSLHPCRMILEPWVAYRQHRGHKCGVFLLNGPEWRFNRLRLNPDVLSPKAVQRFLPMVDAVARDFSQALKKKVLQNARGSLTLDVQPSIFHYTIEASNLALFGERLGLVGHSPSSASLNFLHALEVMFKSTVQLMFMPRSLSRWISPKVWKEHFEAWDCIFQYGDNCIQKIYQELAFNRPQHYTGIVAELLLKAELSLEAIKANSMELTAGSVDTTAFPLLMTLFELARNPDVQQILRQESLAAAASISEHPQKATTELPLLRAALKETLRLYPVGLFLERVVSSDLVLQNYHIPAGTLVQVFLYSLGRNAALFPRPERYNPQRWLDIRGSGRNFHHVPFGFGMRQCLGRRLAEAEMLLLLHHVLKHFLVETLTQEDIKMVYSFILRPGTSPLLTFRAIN

[2] = target: T1, Cytochrome P450 11B2, mitochondrial
Description: Inhibition of human CYP11B2 expressed in hamster V79MZ cells using [3H]-11-deoxycorticosterone as substrate after 1 hr by HPLC analysis

V79MZ = assay: Selectivity ratio of IC50 for human CYP11B1 expressed in hamster V79MZ cells to IC50 for human CYP11B2 expressed in hamster V79MZ cells; format: cell-based
[3] = target: T2, Cytochrome P450 11B1, mitochondrial (Homo sapiens, UniProt P15538)
T2 sequence (P15538 whole entry): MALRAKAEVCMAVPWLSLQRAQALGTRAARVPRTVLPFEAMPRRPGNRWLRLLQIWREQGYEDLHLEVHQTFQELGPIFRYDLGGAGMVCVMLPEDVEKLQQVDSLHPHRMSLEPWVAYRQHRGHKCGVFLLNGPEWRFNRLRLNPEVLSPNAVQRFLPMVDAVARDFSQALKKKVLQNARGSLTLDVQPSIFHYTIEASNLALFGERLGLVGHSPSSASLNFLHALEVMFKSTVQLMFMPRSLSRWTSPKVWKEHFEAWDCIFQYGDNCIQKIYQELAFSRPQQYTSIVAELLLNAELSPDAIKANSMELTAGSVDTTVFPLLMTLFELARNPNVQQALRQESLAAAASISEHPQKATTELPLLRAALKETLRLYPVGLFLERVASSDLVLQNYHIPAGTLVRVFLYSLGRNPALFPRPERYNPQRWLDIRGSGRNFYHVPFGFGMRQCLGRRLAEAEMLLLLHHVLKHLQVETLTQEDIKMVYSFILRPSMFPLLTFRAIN
Description: Inhibition of human CYP11B1 expressed in hamster V79MZ cells using [3H]-11-deoxycorticosterone as substrate after 1 hr by HPLC analysis

CYP19 (aromatase) = target: T3, CYP19 (aromatase) (Homo sapiens, UniProt P11511); assay: Inhibition of human recombinant CYP19 using [1beta3H]androstenedione as substrate at 500 nM; settings: recombinant human CYP19, probe [1beta3H]androstenedione
T3 sequence (P11511 whole entry): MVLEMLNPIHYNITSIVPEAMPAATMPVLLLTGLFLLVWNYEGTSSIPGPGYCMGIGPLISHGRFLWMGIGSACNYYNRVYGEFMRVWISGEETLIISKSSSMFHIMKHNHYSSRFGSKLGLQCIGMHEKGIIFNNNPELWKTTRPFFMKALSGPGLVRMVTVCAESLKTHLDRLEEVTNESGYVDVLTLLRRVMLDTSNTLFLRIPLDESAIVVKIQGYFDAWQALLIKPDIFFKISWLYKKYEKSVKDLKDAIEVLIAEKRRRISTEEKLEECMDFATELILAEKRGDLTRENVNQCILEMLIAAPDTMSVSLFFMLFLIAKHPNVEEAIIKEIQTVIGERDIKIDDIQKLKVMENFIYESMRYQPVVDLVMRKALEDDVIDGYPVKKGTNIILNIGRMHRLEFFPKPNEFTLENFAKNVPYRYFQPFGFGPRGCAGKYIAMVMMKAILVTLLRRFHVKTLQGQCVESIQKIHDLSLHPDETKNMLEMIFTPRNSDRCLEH

CYP17 = target: T4, CYP17 (Homo sapiens, UniProt P05093); assay: Inhibition of human recombinant CYP17 expressed in Escherichia coli using progesterone as substrate at 2 uM; settings: probe progesterone
T4 sequence (P05093 whole entry): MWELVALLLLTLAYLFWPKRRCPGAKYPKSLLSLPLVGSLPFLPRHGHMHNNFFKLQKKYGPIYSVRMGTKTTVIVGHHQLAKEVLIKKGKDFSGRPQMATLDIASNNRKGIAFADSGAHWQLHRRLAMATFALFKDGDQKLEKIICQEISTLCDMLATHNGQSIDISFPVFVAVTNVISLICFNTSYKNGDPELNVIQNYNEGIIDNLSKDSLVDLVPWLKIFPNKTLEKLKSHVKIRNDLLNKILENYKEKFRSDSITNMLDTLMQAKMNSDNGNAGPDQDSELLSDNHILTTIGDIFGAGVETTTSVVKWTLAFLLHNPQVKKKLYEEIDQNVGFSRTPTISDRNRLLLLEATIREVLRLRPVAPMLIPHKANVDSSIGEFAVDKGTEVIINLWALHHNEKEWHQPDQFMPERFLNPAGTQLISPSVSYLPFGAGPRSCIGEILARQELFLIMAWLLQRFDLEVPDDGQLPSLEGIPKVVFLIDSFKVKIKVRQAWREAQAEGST

[4] = Oral bioavailability in Wistar rat at 1 mg/kg by HPLC-MS/MS analysis; format: ADME, organism-based; settings: in vivo
[5] = AUC in Wistar rat at 1 mg/kg, iv by HPLC-MS/MS analysis; format: ADME, organism-based; set-up: dose 1 mg/kg, route intravenous; settings: plasma
[6] = AUC in Wistar rat at 1 mg/kg, po by HPLC-MS/MS analysis; format: ADME, organism-based; set-up: dose 1 mg/kg, route oral; settings: plasma
[7] = Terminal half life in Wistar rat at 1 mg/kg, iv by HPLC-MS/MS analysis; format: ADME, organism-based; set-up: dose 1 mg/kg, route intravenous; settings: in vivo, read-out: beta t1/2 (converted)
[8] = Terminal half life in Wistar rat at 1 mg/kg, po by HPLC-MS/MS analysis; format: ADME, organism-based; set-up: dose 1 mg/kg, route oral; settings: in vivo, read-out: beta t1/2 (converted)
[9] = Cmax in Wistar rat at 1 mg/kg, po after 0.5 hrs by HPLC-MS/MS analysis; format: ADME, organism-based; set-up: dose 1 mg/kg, route oral; settings: in vivo

SMILES | inhibition [1] | IC50 [2] | Ratio IC50 (V79MZ) | IC50 [3] | inhibition at 0.5 µM (CYP19 (aromatase)) | inhibition at 2 µM (CYP17) | bioavailability [4] | AUC [5] | AUC [6] | half-life [7] | half-life [8] | Cmax [9]
Oc1c(-c2cccnc2)cc2ccccc2c1Sc1ccccc1 | 22% | – | – | – | – | – | – | – | – | – | – | –
[O-][S+](c1cccc(Cl)c1)c1c(O)c(-c2cccnc2)cc2ccccc12 (stereo not given) | 90% | 60 nM | 80 | 4800 nM | < 5% | < 5% | – | – | – | – | – | –
[O-][S+](c1cccc(F)c1)c1c(O)c(-c2cccnc2)cc2ccccc12 (stereo not given) | 85% | 39 nM | 168 | 6550 nM | < 5% | < 5% | – | – | – | – | – | –
[O-][S+](c1cc(C(F)(F)F)cc(C(F)(F)F)c1)c1c(O)c(-c2cccnc2)cc2ccccc12 (stereo not given) | 78% | 33 nM | 283 | 9350 nM | < 5% | < 5% | – | – | – | – | – | –
[O-][S+](c1ccc(F)cc1)c1c(O)c(-c2cccnc2)cc2ccccc12 (stereo not given) | 84% | 33 nM | 168 | 5550 nM | < 5% | < 5% | – | – | – | – | – | –
[O-][S+](c1cccc(OC(F)(F)F)c1)c1c(O)c(-c2cccnc2)cc2ccccc12 (stereo not given) | 83% | 14 nM | 415 | 5810 nM | < 5% | < 5% | 19% | 1780 ng·h/mL | 335 ng·h/mL | 4 h | 7 h | 40.4 ng/mL
O=S(=O)(c1ccccc1)c1cc2ccccc2cc1-c1cccnc1 | 16% | – | – | – | – | – | – | – | – | – | – | –
[O-][S+](c1ccc(Cl)cc1)c1c(O)c(-c2cccnc2)cc2ccccc12 (stereo not given) | 84% | 22 nM | 407 | 8950 nM | < 5% | < 5% | – | – | – | – | – | –
[O-][S+](c1ccccc1C(F)(F)F)c1c(O)c(-c2cccnc2)cc2ccccc12 (stereo not given) | 86% | 53 nM | 96 | 5080 nM | < 5% | < 5% | – | – | – | – | – | –
[O-][S+](c1ccccc1Cl)c1c(O)c(-c2cccnc2)cc2ccccc12 (stereo not given) | 90% | 22 nM | 204 | 4490 nM | < 5% | < 5% | – | – | – | – | – | –
COc1cccc(Sc2c(O)c(-c3cccnc3)cc3ccccc23)c1 | 20% | – | – | – | – | – | – | – | – | – | – | –
[O-][S+](c1cc(Cl)cc(Cl)c1)c1c(O)c(-c2cccnc2)cc2ccccc12 (stereo not given) | 87% | 47 nM | 100 | 4720 nM | < 5% | < 5% | – | – | – | – | – | –
N#Cc1ccc([S+]([O-])c2c(O)c(-c3cccnc3)cc3ccccc23)cc1 (stereo not given) | 47% | – | – | – | – | – | – | – | – | – | – | –
[O-][S+](c1ccc(C(F)(F)F)cc1)c1c(O)c(-c2cccnc2)cc2ccccc12 (stereo not given) | 81% | 25 nM | 248 | 6190 nM | < 5% | < 5% | – | – | – | – | – | –
N#Cc1cccc([S+]([O-])c2c(O)c(-c3cccnc3)cc3ccccc23)c1 (stereo not given) | 84% | 46 nM | 186 | 8550 nM | < 5% | < 5% | – | – | – | – | – | –
[O-][S+](c1ccccc1)c1c(O)c(-c2cccnc2)cc2ccccc12 (stereo not given) | 85% | 33 nM | 203 | 6710 nM | < 5% | < 5% | – | – | – | – | – | –
[O-][S+](c1ccc(F)c(Cl)c1)c1c(O)c(-c2cccnc2)cc2ccccc12 (stereo not given) | 91% | 53 nM | 123 | 6530 nM | < 5% | < 5% | – | – | – | – | – | –
[O-][S+](c1ccc(Cl)c(Cl)c1)c1c(O)c(-c2cccnc2)cc2ccccc12 (stereo not given) | 90% | 33 nM | 253 | 8330 nM | < 5% | < 5% | – | – | – | – | – | –
COc1ccc(Sc2c(O)c(-c3cccnc3)cc3ccccc23)cc1 | 22% | – | – | – | – | – | – | – | – | – | – | –
c1ccc(Sc2cc(-c3cccnc3)cc3ccccc23)cc1 | 15% | – | – | – | – | – | – | – | – | – | – | –
COc1ccc([S+]([O-])c2c(O)c(-c3cccnc3)cc3ccccc23)cc1 (stereo not given) | 80% | 48 nM | 87 | 4200 nM | < 5% | < 5% | – | – | – | – | – | –
COc1cccc([S+]([O-])c2c(O)c(-c3cccnc3)cc3ccccc23)c1 (stereo not given) | 87% | 27 nM | 271 | 7310 nM | < 5% | < 5% | – | – | – | – | – | –
[O-][S+](c1ccccc1OC(F)(F)F)c1c(O)c(-c2cccnc2)cc2ccccc12 (stereo not given) | 77% | 56 nM | 84 | 4710 nM | < 5% | < 5% | – | – | – | – | – | –
[O-][S+](c1ccc(OC(F)(F)F)cc1)c1c(O)c(-c2cccnc2)cc2ccccc12 (stereo not given) | 88% | 32 nM | 232 | 7430 nM | < 5% | < 5% | – | – | – | – | – | –
[O-][S+](c1cccc(C(F)(F)F)c1)c1c(O)c(-c2cccnc2)cc2ccccc12 (stereo not given) | 88% | 43 nM | 155 | 6670 nM | < 5% | < 5% | – | – | – | – | – | –
[O-][S+](c1cccs1)c1c(O)c(-c2cccnc2)cc2ccccc12 (stereo not given) | 79% | 192 nM | 32 | 6160 nM | < 5% | < 5% | – | – | – | – | – | –
[O-][S+](c1ccccc1)c1cc(-c2cccnc2)cc2ccccc12 (stereo not given) | 33% | – | – | – | – | – | – | – | – | – | – | –
COc1ccccc1[S+]([O-])c1c(O)c(-c2cccnc2)cc2ccccc12 (stereo not given) | 86% | 64 nM | 17 | 1100 nM | < 5% | < 5% | – | – | – | – | – | –
COc1ccccc1Sc1c(O)c(-c2cccnc2)cc2ccccc12 | 18% | – | – | – | – | – | – | – | – | – | – | –
